Source: publication PMC6688371, “Effect of the inhaled PDE4 inhibitor CHF6001 on biomarkers of inflammation in COPD” (Respiratory Research, 2019)
Like-named read-outs stand apart in the source and are kept apart here. Marks after values point to notes of the source that are not given here.

How the values were obtained:
Format in all cases: in vivo, human
patients with COPD = test: Spirometry and symptoms (FEV1, FVC, CAT, TDI); details: for TDI, adjusted mean difference vs placebo (95% CI): Day 32; for CAT, adjusted mean difference vs placebo (95% CI) / Pre-dose FEV1, adjusted mean difference vs placebo (95% CI) / Pre-dose FVC, adjusted mean difference vs placebo (95% CI): change from baseline to Day 32
Description: (§1) Induced sputum was collected pre-dose on Day 1 of each treatment period (for the first treatment period, the sample could be collected up to 10 days prior to Day 1), and 2 h post-dose on Days 20, 26 and 32 (see the Additional file 1 for further detail on sputum and blood analysis methods). Blood samples were taken pre-dose on Day 1, and pre-dose and at 30 min, and 1, 1.5, 2, 3, 4, 6, 8 and 12 h post-dose on Day 32. Other pre-dose assessments on Days 1 and 32 were spirometry (forced expiratory volume in 1 s [FEV1] and forced vital capacity [FVC]), forced oscillometry, and COPD Assessment Test (CAT), with Baseline Dyspnea Index recorded on Day 1 and Transition Dyspnea Index (TDI) on Day 32. Central and peripheral airways mechanics were assessed using forced oscillometry, with the following values determined: inspiratory and expiratory resistance (at 5 and 19 Hz), inspiratory and expiratory reactance, tidal expiratory flow limitation and the percentage of flow limited breaths.
(§2) The mean changes from baseline to Day 32 for lung function, CAT and TDI were analysed using similar methodology to sputum biomarkers, but were not log-transformed. […] The sputum concentration of CHF6001 was also evaluated at 2 h post-dose, using the mean of all values measured on Days 20, 26 and 32. Pharmacokinetic variables were summarised using geometric means and coefficients of variation, except for Tmax,ss, which is presented as median (range).

[1] = Plasma pharmacokinetics at steady state (Day 32); details: for Tmax,ss / CL/F / Cmax / AUC(0-t): plasma on Day 32; for Tmax,ss: median (range); for CL/F / Cmax / AUC(0-t): both sexes, human, inhaled or intranasal, geometric mean (%CV); for AUC(0-t): read-out: AUC0–12,ss
Description: as §1
as §2, with “(range). […]” for “(range).”
Validation procedures again followed those outlined for the analysis of biomarkers above. All […]
concentrations of biomarkers in human serum or plasma from regulatory studies.
Blood for the pharmacokinetic analysis was collected pre-dose and at 30 min, and 1, 1.5, 2, 3, 4, 6, 8 and 12 h post-dose on Day 32 of each treatment period. Samples were centrifuged at 2000 g for 15 min at 4C, with the resulting plasma shipped to the central laboratory at –60 […]
to –90C. The plasma concentration of CHF6001 was evaluated using a LC-MS/MS method following solid phase extraction. Validation procedures again followed those outlined for the analysis of biomarkers above. The bioanalytical method wa s found to be linear over the calibration range of 10 to 20,000 pg/mL. The precision and accuracy of the method was found to be within the target limits of within 20% at the lower limit of quantification 10 pg/mL and within 15% at all other concentrations.
The recovery of CHF6001 from human plasma was consistent across the analytical range , with no significant matrix effects. […]
for up to 24 h at the sample processing temperature (nominally +20C), a fter storage for 184 days in a freezer (nominally –80C) and after four freeze-thaw cycles at nominally – 80C / +20C. Therefore the method was considered to be suitable for measuring concentrations of CHF6001 in human plasma samples from regulatory studies.
The study was approved by two centralised ethics committees on behalf of the sites:
• UK: Health Research Authority, North West, Greater Manchester South Research Ethics Committee, Manchester (approval reference 16/NW/0553).
• Germany: Ethics Committee of Hesse Medical Association, Frankfurt am Main (approval reference FF 98/2016).
Patients had to meet all the following inclusion criteria to be eligible for enrolment into the […]
1. Written informed consent obtained prior to any study-related procedures;
2. Male or female aged ≥40 years;
3. A female was eligible to enter the study if they were of non-childbearing potential, i.e. physiologically incapable of becoming pregnant (e.g. postmenopausal women defined as being amenorrhoeic for ≥12 consecutive months without an alternative medical cause. If indicated, as per Investigator’s request, post -menopausal status

[2] = Sputum concentration of CHF6001; details: for concentration at 2 h: sputum, mean of all values measured on Days 20, 26 and 32, geometric mean (%CV), read-out: Sputum concentration at 2 h post-dose
Description: as §2, with “(range). […]” for “(range).”
Only one of the sputum samples induced at 2 h post-dose on Days 20, 26 or 32 was used to evaluate CHF6001 concentration, with the evaluation performed only if a minimum of 300 mg of residual sputum remained. Approximately 30 mg of sputum plug was transferred to a polypropylene cryotube, and was shipped in an upright position at –80C to a central laboratory for analysis. The concentration of CHF6001 was evaluated using a LC-MS/MS method following solid phase extraction. Validation procedures were the same as those listed above for biomarkers. […]
over the calibration range of 30 to 20,000 ng/mL. The precision and accuracy of the method […]
30 ng/mL and within 15% at all other concentrations. No significant matrix effects were […]
temperature (nominally +22C), after storage for 93 days in a freezer set at –80C and after four freeze-thaw cycles at nominally –80C / +22C. The method was considered to be suitable for measuring concentrations of CHF6001 in human sputum samples from […]

In the case of `CS(=O)(=O)Nc1ccc(C(=O)O[C@@H](Cc2c(Cl)c[n+]([O-])cc2Cl)c2ccc(OC(F)F)c(OCC3CC3)c2)cc1OCC1CC1` [CHF6001], the “TDI, adjusted mean difference vs placebo (95% CI)” value (patients with COPD; 800 µg BID) is reported as 0.3 (–0.1 to 0.8), the “CAT, adjusted mean difference vs placebo (95% CI)” value (patients with COPD; 800 µg BID) is reported as “–0.3 (–1.4 to 0.8)” and the “Pre-dose FEV1, adjusted mean difference vs placebo (95% CI)” value (patients with COPD; 800 µg BID) is reported as 13 (–26 to 52) mL. For the same molecule, the “Pre-dose FVC, adjusted mean difference vs placebo (95% CI)” value (patients with COPD; 800 µg BID) was 25 (–58 to 109) mL, the “TDI, adjusted mean difference vs placebo (95% CI)” value (patients with COPD; 1600 µg BID) was “–0.1 (–0.6 to 0.4)” and the “CAT, adjusted mean difference vs placebo (95% CI)” value (patients with COPD; 1600 µg BID) was “–0.3 (–1.3 to 0.8)”. For the same molecule, the “Pre-dose FEV1, adjusted mean difference vs placebo (95% CI)” value (patients with COPD; 1600 µg BID) was “–35 (–74 to 4) mL”, the “Pre-dose FVC, adjusted mean difference vs placebo (95% CI)” value (patients with COPD; 1600 µg BID) was “–26 (–109 to 58) mL” and the “Lung function (FEV1 and FVC) or symptoms vs placebo” value (patients with COPD; either dose (800 or 1600 μg BID)) was “Neither CHF6001 dose differed from placebo”. For the same molecule, the “Tmax,ss” value ([1]; 800 μg BID inhaled) was 2.00 (0.50; 4.08)^a h, the “Tmax,ss” value ([1]; 1600 μg BID inhaled) was 2.00 (0.48; 4.05)^b h and the “Systemic exposure in relation to dose” value ([1]; Day 32, 800 vs 1600 μg BID) was “broadly proportional to dose”. It also gave a CL/F ([1]; 800 ug, 800 μg BID inhaled) of 603 mL/min, a Cmax ([1]; 800 ug, 800 μg BID inhaled) of 2.44 ng/mL and an AUC(0-t) ([1]; 800 ug, 800 μg BID inhaled) of 22.1 ng·h/mL. It also gave a CL/F ([1]; 1600 ug, 1600 μg BID inhaled) of 653 mL/min, a Cmax ([1]; 1600 ug, 1600 μg BID inhaled) of 4.5 ng/mL and an AUC(0-t) ([1]; 1600 ug, 1600 μg BID inhaled) of 40.8 ng·h/mL. For the same molecule, the “Sputum concentration in relation to dose” value ([2]; 2 h post-dose, steady state (after Day 20), 800 vs 1600 μg BID) was “dose-proportionality was observed”, the Kp at 2 h ([2]; both sexes, human, sputum relative to plasma, inhaled, 2 h post-dose, steady state) was ~2000 and the concentration at 2 h ([2]; both sexes, human, 800 μg BID inhaled) was 4900 ng/mL. For the same molecule, the concentration at 2 h ([2]; both sexes, human, 1600 μg BID inhaled) was 10200 ng/mL.
